Measurements reported in US12162890B2 (Novartis AG, priority 2015, dated 2024).

Biological target: HEK293 cells with stable expression of the GRIN1 gene and tetracycline-inducible expression of the GRIN2B gene (NMDA receptor, NR2B) (Homo sapiens, UniProt Q13224)
Test: Fluo-8 Ca2+ flux assay: reversal of Ro 25-6981-mediated suppression of the Ca2+ response to co-agonist (glutamate/glycine); note: test concentration or dose not given here
Type: cell-based
Conditions: reversal of the Ro 25-6981 suppression of the Ca2+ response to co-agonist (glutamate/glycine)

HEK293 cells with stable expression of the GRIN1 gene and tetracycline-inducible expression of the GRIN2B gene (NMDA receptor, NR2B), sequence (Q13224 27-1484, other chains not shown): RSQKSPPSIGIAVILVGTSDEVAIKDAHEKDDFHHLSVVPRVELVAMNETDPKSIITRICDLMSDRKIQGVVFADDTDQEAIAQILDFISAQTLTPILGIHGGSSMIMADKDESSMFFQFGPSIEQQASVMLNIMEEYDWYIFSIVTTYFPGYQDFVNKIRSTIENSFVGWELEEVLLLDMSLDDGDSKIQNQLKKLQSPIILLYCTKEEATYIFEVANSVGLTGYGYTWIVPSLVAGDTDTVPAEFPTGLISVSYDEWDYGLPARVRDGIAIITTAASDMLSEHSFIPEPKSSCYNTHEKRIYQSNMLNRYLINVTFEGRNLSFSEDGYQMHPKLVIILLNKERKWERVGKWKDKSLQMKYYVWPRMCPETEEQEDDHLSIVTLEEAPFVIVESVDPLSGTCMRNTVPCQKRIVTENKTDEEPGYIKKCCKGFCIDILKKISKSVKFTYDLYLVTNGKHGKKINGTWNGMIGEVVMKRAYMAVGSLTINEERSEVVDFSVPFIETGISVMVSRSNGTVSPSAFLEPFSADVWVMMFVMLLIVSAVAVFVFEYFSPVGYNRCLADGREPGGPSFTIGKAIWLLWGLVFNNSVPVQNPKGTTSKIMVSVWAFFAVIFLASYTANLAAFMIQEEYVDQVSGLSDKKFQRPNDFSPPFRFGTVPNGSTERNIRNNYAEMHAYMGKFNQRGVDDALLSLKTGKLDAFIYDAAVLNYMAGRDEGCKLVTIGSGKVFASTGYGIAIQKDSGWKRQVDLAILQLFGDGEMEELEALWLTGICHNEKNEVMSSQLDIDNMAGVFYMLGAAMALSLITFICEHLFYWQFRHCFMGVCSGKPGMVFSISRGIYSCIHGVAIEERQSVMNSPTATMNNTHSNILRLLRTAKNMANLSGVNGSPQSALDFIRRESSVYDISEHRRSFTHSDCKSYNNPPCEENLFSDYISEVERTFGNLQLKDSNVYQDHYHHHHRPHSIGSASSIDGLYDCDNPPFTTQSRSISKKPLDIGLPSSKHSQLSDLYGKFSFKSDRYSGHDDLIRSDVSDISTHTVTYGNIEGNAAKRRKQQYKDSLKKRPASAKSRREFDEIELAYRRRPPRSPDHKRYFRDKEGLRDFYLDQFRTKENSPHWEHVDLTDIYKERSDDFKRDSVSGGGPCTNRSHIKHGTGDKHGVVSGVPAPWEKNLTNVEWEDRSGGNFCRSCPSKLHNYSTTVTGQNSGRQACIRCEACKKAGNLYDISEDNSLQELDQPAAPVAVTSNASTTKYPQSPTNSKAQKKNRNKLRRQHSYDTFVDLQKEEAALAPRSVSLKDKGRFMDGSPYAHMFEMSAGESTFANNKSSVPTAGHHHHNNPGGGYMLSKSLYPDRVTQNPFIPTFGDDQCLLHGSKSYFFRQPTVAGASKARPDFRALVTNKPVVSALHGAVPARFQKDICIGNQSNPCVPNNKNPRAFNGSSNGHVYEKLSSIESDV

O=C(Cn1ccc2scc(-c3cnc(Cl)c(Cl)c3)c2c1=O)N1CC(F)(C2CC2)C1 [Example 70, 5-(2-(3-cyclopropyl-3-fluoroazetidin-1-yl)-2-oxoethyl)-3-(5,6-dichloropyridin-3-yl)thieno[3,2-c]pyridin-4(5H)-one]
Response Recovered (%): 64%

O=C(Cn1ccc2c(c(-c3ccc(F)c(Cl)c3)cn2C2COC2)c1=O)N1CCC(F)C1 (stereo not shown) [Example 261, 3-(3-chloro-4-fluorophenyl)-5-(2-(3-fluoropyrrolidin-1-yl)-2-oxoethyl)-1-(oxetan-3-yl)-1H-pyrrolo[3,2-c]pyridin-4(5H)-one]
Response Recovered (%): 29%

Cc1cn(CC(=O)N2CC(F)(F)C2)c(=O)c2c(-c3ccc(F)c(Cl)c3)ccn12 [Example 417, 8-(3-chloro-4-fluorophenyl)-2-(2-(3,3-difluoroazetidin-1-yl)-2-oxoethyl)-4-methylpyrrolo[1,2-a]pyrazin-1(2H)-one]
Response Recovered (%): 20%

O=C(Cn1ccc2scc(-c3cnc(F)c(F)c3)c2c1=O)N1CC(F)(CF)C1 [Example 144, 3-(5,6-difluoropyridin-3-yl)-5-(2-(3-fluoro-3-(fluoromethyl)azetidin-1-yl)-2-oxoethyl)thieno[3,2-c]pyridin-4(5H)-one]
Response Recovered (%): 9.8%

Cc1cc(-c2nc(C3CC3)n3ccn(CC(=O)N4CC(C)(F)C4)c(=O)c23)ccc1Cl [Example 443, 1-(4-chloro-3-methylphenyl)-3-cyclopropyl-7-(2-(3-fluoro-3-methylazetidin-1-yl)-2-oxoethyl)imidazo[1,5-a]pyrazin-8(7H)-one]
Response Recovered (%): 120%

O=C(Cn1cnc2csc(-c3ccc(Cl)cc3)c2c1=O)N1CCCC1 [Example 345, 5-(4-chlorophenyl)-3-(2-oxo-2-(pyrrolidin-1-yl)ethyl)thieno[3,4-d]pyrimidin-4(3H)-one]
Response Recovered (%): 18%

O=C(Cn1cc(-c2ccncc2)c2scc(-c3ccc(F)c(C(F)(F)F)c3)c2c1=O)N1CCCC1 [Example 105, 3-(4-fluoro-3-(trifluoromethyl)phenyl)-5-(2-oxo-2-(pyrrolidin-1-yl)ethyl)-7-(pyridin-4-yl)thieno[3,2-c]pyridin-4(5H)-one]
Response Recovered (%): 22%

O=C(Cn1cc(CN2CCCC2)c2scc(-c3ccc(F)c(Cl)c3)c2c1=O)N1CCC(F)C1 (stereo not shown) [Example 119, 3-(3-chloro-4-fluorophenyl)-5-(2-(3-fluoropyrrolidin-1-yl)-2-oxoethyl)-7-(pyrrolidin-1-ylmethyl)thieno[3,2-c]pyridin-4(5H)-one]
Response Recovered (%): 75%

O=C(Cn1cnc2cccc(-c3ccc(Cl)cc3)c2c1=O)N1CCCC1C(F)(F)F (stereo not shown) [Example 297, 5-(4-chlorophenyl)-3-(2-oxo-2-(2-(trifluoromethyl)pyrrolidin-1-yl)ethyl)quinazolin-4(3H)-one]
Response Recovered (%): 3%

CN(C)Cc1cn(CC(=O)N2CCC(F)C2)c(=O)c2c(-c3ccc(F)c(C(F)(F)F)c3)csc12 (stereo not shown) [Example 116, 7-((dimethylamino)methyl)-3-(4-fluoro-3-(trifluoromethyl)phenyl)-5-(2-(3-fluoropyrrolidin-1-yl)-2-oxoethyl)thieno[3,2-c]pyridin-4(5H)-one]
Response Recovered (%): 70%

CCC1(F)CN(C(=O)Cn2ccc3scc(-c4cnc(Cl)nc4)c3c2=O)C1 [Example 141, 3-(2-chloropyrimidin-5-yl)-5-(2-(3-ethyl-3-fluoroazetidin-1-yl)-2-oxoethyl)thieno[3,2-c]pyridin-4(5H)-one]
Response Recovered (%): −4.1%

Cn1cc(-c2ccc(F)c(Cl)c2)c2c(=O)n(CC(=O)N3CCC(F)C3)ccc21 (stereo not shown) [Example 247, 3-(3-chloro-4-fluorophenyl)-5-(2-(3-fluoropyrrolidin-1-yl)-2-oxoethyl)-1-methyl-1H-pyrrolo[3,2-c]pyridin-4(5H)-one]
Response Recovered (%): 51%

O=C(Cn1ccc2c(c(-c3ccc(F)c(C(F)(F)F)c3)cn2C2COC2)c1=O)N1CCC(F)C1 (stereo not shown) [Example 265, 3-(4-fluoro-3-(trifluoromethyl)phenyl)-5-(2-(3-fluoropyrrolidin-1-yl)-2-oxoethyl)-1-(oxetan-3-yl)-1H-pyrrolo[3,2-c]pyridin-4(5H)-one]
Response Recovered (%): 61%

CC1(F)CN(C(=O)Cn2ccc3scc(-c4cnc(Cl)nc4)c3c2=O)C1 [Example 140, 3-(2-chloropyrimidin-5-yl)-5-(2-(3-fluoro-3-methylazetidin-1-yl)-2-oxoethyl)thieno[3,2-c]pyridin-4(5H)-one]
Response Recovered (%): 3.1%

CC1(O)CN(C(=O)Cn2ccc3scc(-c4ccc(F)c(Cl)c4)c3c2=O)C1 [Example 58, 3-(3-chloro-4-fluorophenyl)-5-(2-(3-hydroxy-3-methylazetidin-1-yl)-2-oxoethyl)thieno[3,2-c]pyridin-4(5H)-one]
Response Recovered (%): 10%

CCC1(F)CN(C(=O)Cn2ccc3scc(-c4cnc(Cl)c(C)c4)c3c2=O)C1 [Example 85, 3-(6-chloro-5-methylpyridin-3-yl)-5-(2-(3-ethyl-3-fluoroazetidin-1-yl)-2-oxoethyl)thieno[3,2-c]pyridin-4(5H)-one]
Response Recovered (%): 16%

Cc1cn(CC(=O)N2CC(C)(F)C2)c(=O)c2c(-c3ccc(F)c(Cl)c3)ccn12 [Example 416, 8-(3-chloro-4-fluorophenyl)-2-(2-(3-fluoro-3-methylazetidin-1-yl)-2-oxoethyl)-4-methylpyrrolo[1,2-a]pyrazin-1(2H)-one]
Response Recovered (%): 110%

O=C(Cn1cnc2csc(-c3ccc(Cl)cc3)c2c1=O)NC1CCC1 [Example 347, 2-(5-(4-chlorophenyl)-4-oxothieno[3,4-d]pyrimidin-3-(4H)-yl)-N-cyclobutylacetamide]
Response Recovered (%): 2%

CCn1cc(-c2ccc(F)c(C(F)(F)F)c2)c2c(=O)n(CC(=O)N3CCC(F)C3)ccc21 (stereo not shown) [Example 239, 1-ethyl-3-(4-fluoro-3-(trifluoromethyl)phenyl)-5-(2-(3-fluoropyrrolidin-1-yl)-2-oxoethyl)-1H-pyrrolo[3,2-c]pyridin-4(5H)-one]
Response Recovered (%): 86%

O=C(Cn1ccc2scc(-c3ccc(F)c(C(F)(F)F)c3)c2c1=O)N1C[C@@H](F)[C@@H](F)C1 [Example 28, 5-(2-((3S,4R)-3,4-difluoropyrrolidin-1-yl)-2-oxoethyl)-3-(4-fluoro-3-(trifluoromethyl)phen-nyl)thieno[3,2-c]pyridin-4(5H)-one]
Response Recovered (%): 94%

O=C(Cn1ccc2scc(-c3cnc(Cl)c(Cl)c3)c2c1=O)N1CCC(F)C1 (stereo not shown) [Example 12, 3-(5,6-dichloropyridin-3-yl)-5-(2-(3-fluoropyrrolidin-1-yl)-2-oxoethyl)thieno[3,2-c]pyridin-4(5H)-one]
Response Recovered (%): 35%

O=C(Cn1cnc2ccn(-c3ccc(Cl)cc3)c2c1=O)N1CCOCC1 [Example 371, 5-(4-chlorophenyl)-3-(2-morpholino-2-oxoethyl)-3H-pyrrolo[3,2-d]pyrimidin-4(5H)-one]
Response Recovered (%): 1%

O=C(Cn1ccc2scc(-c3ccc(Cl)c(Cl)c3)c2c1=O)N1CC[C@@H](F)C1 [Example 29, (R)-3-(3,4-dichlorophenyl)-5-(2-(3-fluoropyrrolidin-1-yl)-2-oxoethyl)thieno[3,2-c]pyridin-4(5H)-one]
Response Recovered (%): 104%

O=C(Cn1ncc2scc(-c3ccc(F)c(Cl)c3)c2c1=O)N1CCC(F)C1 (stereo not shown) [Example 343, 3-(3-chloro-4-fluorophenyl)-5-(2-(3-fluoropyrrolidin-1-yl)-2-oxoethyl)theino[2,3-d]pyridazin-4(5H)-one]
Response Recovered (%): 15%

COCn1cc(-c2ccc(F)c(Cl)c2)c2c(=O)n(CC(=O)N3CCC(F)C3)ccc21 (stereo not shown) [Example 246, 3-(3-chloro-4-fluorophenyl)-5-(2-(3-fluoropyrrolidin-1-yl)-2-oxoethyl)-1-(methoxymethyl)-1H-pyrrolo[3,2-c]pyridin-4(5H)-one]
Response Recovered (%): 34%

O=C(Cn1ccc2cccc(-c3ccc(Cl)c(C(F)(F)F)c3)c2c1=O)N1CCCC1 [Example 300, 8-(4-chloro-3-(trifluoromethyl)phenyl)-2-(2-oxo-2-(pyrrolidin-1-yl)ethyl)isoquinolin-1(2H)-one]
Response Recovered (%): 37%

Cc1cc(-c2csc3ccn(CC(=O)N4CC(C)(F)C4)c(=O)c23)cnc1F [Example 87, 5-(2-(3-fluoro-3-methylazetidin-1-yl)-2-oxoethyl)-3-(6-fluoro-5-methylpyridin-3-yl)thieno[3,2-c]pyridin-4(5H)-one]
Response Recovered (%): −4.2%

O=C(Cn1cnc2c(c(-c3ccc(Cl)c(C(F)(F)F)c3)cn2CCO)c1=O)N1CCCC1 [Example 194, 5-(4-chloro-3-(trifluoromethyl)phenyl)-7-(2-hydroxyethyl)-3-(2-oxo-2-(pyrrolidin-1-yl)ethyl)-3H-pyrrolo[2,3-d]pyrimidin-4(7H)-one]
Response Recovered (%): 2%

C[Si](C)(C)CCOCn1cc(-c2ccc(F)c(Cl)c2)c2c(=O)n(CC(=O)N3CCCC3)ccc21 [Example 205, 3-(3-chloro-4-fluorophenyl)-5-(2-oxo-2-(pyrrolidin-1-yl)ethyl)-1-((2-(trimethylsilyl)ethoxy)methyl)-1H-pyrrolo[3,2-c]pyridin-4(5H)-one]
Response Recovered (%): 59%

Cc1cc(-c2cn(C3CC3)c3ccn(CC(=O)N4CC(C)(F)C4)c(=O)c23)ccc1F [Example 290, 1-cyclopropyl-5-(2-(3-fluoro-3-methylazetidin-1-yl)-2-oxoethyl)-3-(4-fluoro-3-methylphenyl)-1H-pyrrolo[3,2-c]pyridin-4(5H)-one]
Response Recovered (%): 120%

CC1(F)CN(C(=O)Cn2ccn3c(C4CC4)nc(-c4cnc(Cl)c(Cl)c4)c3c2=O)C1 [Example 437, 3-cyclopropyl-1-(5,6-dichloropyridin-3-yl)-7-(2-(3-fluoro-3-methylazetidin-1-yl)-2-oxoethyl)imidazo[1,5-a]pyrazin-8(7H)-one]
Response Recovered (%): 65%
